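Cultured in 96-well plates, cells were exposed to test compound for 48 hours across five concentrations. The concentration for 50% growth inhibition is given as GI50. TGI marks complete inhibition of growth.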
Key:
Test in all cases: DTP human tumour cell line panel, 48 h
[1] = tested on: DU-145 prostate
[2] = tested on: NCI/ADR-RES ovarian
[3] = tested on: UACC-257 melanoma
[4] = tested on: NCI-H522 lung
[5] = tested on: CAKI-1 renal
[6] = tested on: HCT-116 colon
[7] = tested on: A549 NSCLC
[8] = tested on: SF-539 CNS
[9] = tested on: CCRF-CEM leukemia
[10] = tested on: TK-10 renal
[11] = tested on: NCI-H23 lung
[12] = tested on: SNB-19 CNS
[13] = tested on: SR leukemia
[14] = tested on: SF-295 CNS
[15] = tested on: MDA-MB-435
[16] = tested on: ACHN renal
[17] = tested on: KM12 colon
[18] = tested on: U251 CNS
[19] = tested on: M14 melanoma
[20] = tested on: HT29 colon
[21] = tested on: OVCAR-3 ovarian
[22] = tested on: HOP-92 NSCLC
[23] = tested on: HCT-15 colon
[24] = tested on: 786-0 renal
[25] = tested on: SK-MEL-28 melanoma
[26] = tested on: SNB-75 CNS
[27] = tested on: OVCAR-5 ovarian
[28] = tested on: HOP-62 NSCLC
[29] = tested on: OVCAR-4 ovarian
[30] = tested on: MOLT-4 leukemia
[31] = tested on: MDA-MB-231 breast
[32] = tested on: NCI-H226 lung
[33] = tested on: OVCAR-8 ovarian
[34] = tested on: T-47D breast
[35] = tested on: NCI-H460 lung
[36] = tested on: MCF7 breast
[37] = tested on: SK-MEL-2 melanoma
[38] = tested on: SW-620 colon
[39] = tested on: PC-3 prostate
[40] = tested on: SK-OV-3 ovarian
[41] = tested on: K-562 leukemia
[42] = tested on: MDA-MB-468 breast
[43] = tested on: EKVX NSCLC
[44] = tested on: SF-268 CNS
[45] = tested on: UO-31 renal
[46] = tested on: RPMI-8226 leukemia
[47] = tested on: A498 renal
[48] = tested on: RXF 393 renal
[49] = tested on: HL-60(TB) leukemia
[50] = tested on: BT-549 breast
[51] = tested on: LOX IMVI melanoma
[52] = tested on: SK-MEL-5 melanoma
[53] = tested on: IGROV1 ovarian
[54] = tested on: UACC-62 melanoma
[55] = tested on: HS 578T breast
[56] = tested on: COLO 205 colon
[57] = tested on: HCC-2998 colon
[58] = tested on: MALME-3M melanoma
[59] = tested on: SN12C renal

Q: Which GI50 [1] does the source give for `O=C(CNc1nc(-c2ccccc2)cs1)Nc1ccccc1` here?
A: 3.74 µM

Q: What about the TGI [1] of the same molecule?
A: 13.4 µM

Q: What about the GI50 [2] of the same molecule?
A: 2.29 µM

Q: And the TGI [2]?
A: 6.16 µM

Q: And the GI50 [3]?
A: 2.05 µM

Q: And the TGI [3]?
A: 8.33 µM

Q: And the GI50 [4]?
A: 1.53 µM

Q: And the TGI [4]?
A: 3.02 µM

Q: And the GI50 [5]?
A: 2.2 µM

Q: And the TGI [5]?
A: 10.6 µM

Q: And the GI50 [6]?
A: 1.81 µM

Q: What about the TGI [6] of the same molecule?
A: 5.75 µM

Q: And the GI50 [7]?
A: 3.25 µM

Q: And the TGI [7]?
A: 13.5 µM

Q: What about the GI50 [8] of the same molecule?
A: 1.77 µM

Q: And the TGI [8]?
A: 3.22 µM

Q: What about the GI50 [9] of the same molecule?
A: 1.88 µM

Q: And the TGI [9]?
A: > 100 µM

Q: What about the GI50 [10] of the same molecule?
A: 4.64 µM

Q: And the TGI [10]?
A: 12.4 µM

Q: And the GI50 [11]?
A: 1.48 µM

Q: What about the TGI [11] of the same molecule?
A: 3.15 µM

Q: And the GI50 [12]?
A: 1.82 µM

Q: What about the TGI [12] of the same molecule?
A: 4.16 µM

Q: And the GI50 [13]?
A: 1.42 µM

Q: And the TGI [13]?
A: > 100 µM

Q: What about the GI50 [14] of the same molecule?
A: 2.48 µM

Q: And the TGI [14]?
A: 11.6 µM

Q: What about the GI50 [15] of the same molecule?
A: 2.05 µM

Q: What about the TGI [15] of the same molecule?
A: 5.32 µM

Q: And the GI50 [16]?
A: 2.6 µM

Q: What about the TGI [16] of the same molecule?
A: 10.6 µM

Q: What about the GI50 [17] of the same molecule?
A: 3.87 µM

Q: What about the TGI [17] of the same molecule?
A: 14.9 µM

Q: And the GI50 [18]?
A: 1.56 µM

Q: And the TGI [18]?
A: 3.34 µM

Q: What about the GI50 [19] of the same molecule?
A: 1.52 µM

Q: And the TGI [19]?
A: 3.49 µM

Q: And the GI50 [20]?
A: 2.06 µM

Q: What about the TGI [20] of the same molecule?
A: 4.08 µM

Q: What about the GI50 [21] of the same molecule?
A: 1.93 µM

Q: And the TGI [21]?
A: 4.36 µM

Q: What about the GI50 [22] of the same molecule?
A: 3.47 µM

Q: What about the TGI [22] of the same molecule?
A: 16.5 µM

Q: What about the GI50 [23] of the same molecule?
A: 1.61 µM

Q: What about the TGI [23] of the same molecule?
A: 3.36 µM

Q: And the GI50 [24]?
A: 2.63 µM

Q: What about the TGI [24] of the same molecule?
A: 5.48 µM

Q: And the GI50 [25]?
A: 2.56 µM

Q: What about the TGI [25] of the same molecule?
A: 6.81 µM

Q: What about the GI50 [26] of the same molecule?
A: 1.05 µM

Q: And the TGI [26]?
A: 6.68 µM

Q: And the GI50 [27]?
A: 2.95 µM

Q: What about the TGI [27] of the same molecule?
A: 7.03 µM

Q: And the GI50 [28]?
A: 2.17 µM

Q: And the TGI [28]?
A: 6.31 µM

Q: What about the GI50 [29] of the same molecule?
A: 4.88 µM

Q: And the TGI [29]?
A: 18.1 µM

Q: And the GI50 [30]?
A: 1.83 µM

Q: And the TGI [30]?
A: 7.46 µM

Q: And the GI50 [31]?
A: 1.93 µM

Q: What about the TGI [31] of the same molecule?
A: 7.28 µM

Q: What about the GI50 [32] of the same molecule?
A: 1.94 µM

Q: What about the TGI [32] of the same molecule?
A: 7.99 µM

Q: And the GI50 [33]?
A: 2.96 µM

Q: What about the TGI [33] of the same molecule?
A: 14.9 µM

Q: And the GI50 [34]?
A: 2.57 µM

Q: And the TGI [34]?
A: 10.2 µM

Q: And the GI50 [35]?
A: 2.94 µM

Q: And the TGI [35]?
A: 11.8 µM

Q: What about the GI50 [36] of the same molecule?
A: 1.4 µM

Q: And the TGI [36]?
A: 3.41 µM

Q: And the GI50 [37]?
A: 1.73 µM

Q: What about the TGI [37] of the same molecule?
A: 4.29 µM

Q: And the GI50 [38]?
A: 2.46 µM

Q: And the TGI [38]?
A: 6.04 µM

Q: What about the GI50 [39] of the same molecule?
A: 2.96 µM

Q: What about the TGI [39] of the same molecule?
A: 30.3 µM

Q: What about the GI50 [40] of the same molecule?
A: 2.92 µM

Q: What about the TGI [40] of the same molecule?
A: 10.2 µM

Q: What about the GI50 [41] of the same molecule?
A: 2.32 µM

Q: And the TGI [41]?
A: > 100 µM

Q: And the GI50 [42]?
A: 1.55 µM

Q: What about the TGI [42] of the same molecule?
A: 3.2 µM

Q: What about the GI50 [43] of the same molecule?
A: 1.58 µM

Q: What about the TGI [43] of the same molecule?
A: 3.14 µM

Q: And the GI50 [44]?
A: 3.33 µM

Q: What about the TGI [44] of the same molecule?
A: 22.9 µM

Q: And the GI50 [45]?
A: 2.37 µM

Q: And the TGI [45]?
A: 12.9 µM

Q: What about the GI50 [46] of the same molecule?
A: 2.29 µM

Q: And the TGI [46]?
A: 80.9 µM

Q: And the GI50 [47]?
A: 11.1 µM

Q: And the TGI [47]?
A: 23.5 µM

Q: What about the GI50 [48] of the same molecule?
A: 1.85 µM

Q: And the TGI [48]?
A: 3.86 µM

Q: And the GI50 [49]?
A: 1.83 µM

Q: And the TGI [49]?
A: 6.67 µM

Q: And the GI50 [50]?
A: 2.25 µM

Q: What about the TGI [50] of the same molecule?
A: 4.23 µM

Q: What about the GI50 [51] of the same molecule?
A: 1.21 µM

Q: And the TGI [51]?
A: 2.7 µM

Q: What about the GI50 [52] of the same molecule?
A: 1.62 µM

Q: What about the TGI [52] of the same molecule?
A: 2.98 µM

Q: What about the GI50 [53] of the same molecule?
A: 1.5 µM

Q: And the TGI [53]?
A: 4.87 µM

Q: What about the GI50 [54] of the same molecule?
A: 1.14 µM

Q: And the TGI [54]?
A: 2.58 µM

Q: What about the GI50 [55] of the same molecule?
A: 3.04 µM

Q: What about the TGI [55] of the same molecule?
A: > 100 µM

Q: And the GI50 [56]?
A: 2.16 µM

Q: And the TGI [56]?
A: 4.57 µM

Q: What about the GI50 [57] of the same molecule?
A: 1.77 µM

Q: And the TGI [57]?
A: 3.88 µM

Q: And the GI50 [58]?
A: 1.54 µM

Q: What about the TGI [58] of the same molecule?
A: 3.23 µM

Q: What about the GI50 [59] of the same molecule?
A: 1.54 µM

Q: What about the TGI [59] of the same molecule?
A: 3.44 µM
